Results published in PMC3004914, “Classification of Drugs Based on Properties of Sodium Channel Inhibition: A Comparative Automated Patch-Clamp Study” (PLoS ONE, 2010).
Several values for one entry are separate records, joined by “and”; a condition that tells them apart may be missing. Identical values can stand only once. Like-named read-outs stand apart in the source and are kept apart here.

Tests used:
[1] = target: T1, rNav1.2 sodium channels (HEK-293 cells) (Rattus norvegicus, UniProt P04775); assay: 5 Hz train protocol, QPatch automated patch-clamp; assay type: cell-based; details: for UD (use-dependence of the inhibition) / inhibition at 300 µM / potency estimated from few doses / use-dependence (UD) / inhibition at 30 µM / inhibition at 100 µM: 5 Hz train; for inhibition at 300 µM / potency estimated from few doses / inhibition at 30 µM / inhibition at 100 µM: HEK293; for inhibition at 300 µM / inhibition at 30 µM / inhibition at 100 µM: −90 mV holding potential, read-out: Inh (inhibited fraction); for potency estimated from few doses: −90 mV, read-out: IC50; for potency: in words;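 for UD (use-dependence of the inhibition): UD = (A3/A4)/(A1/A2) as ratios of peak amplitudes from Figure 1A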
In short: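 rNav1.2 in stable HEK-293 cells, QPatch whole-cell; 5 Hz trains of five pulses from −90 to −10 mV, repeated every 20 s; 10 control trains, 10 with drug, then washout. Inhibition of peak current at a single concentration gave IC50; reversibility, use-dependence and τoff also derived.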

[2] = target: T1, rNav1.2 sodium channels (HEK-293 cells); assay: steady-state inactivation protocol (availability curves), QPatch automated patch-clamp; assay type: cell-based
In short: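 HEK-293 cells stably expressing rat Nav1.2, recorded by automated patch clamp in extracellular solution pH 7.3 containing CdCl2 and TEA. Availability measured with 400 ms pre-pulses from −150 to −30 mV, then a 10 ms test pulse to −10 mV. Kr, Ki (four-state model) and Kr/Ki state-dependence derived from inhibition and ΔV1/2.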

sodium channels = details: averaged literature data, cited from earlier work; for Ki: read-out: Ki−Lit; for Kd: read-out: Kr−Lit
[3] = human plasma, cited from earlier work
[4] = 300 μM, 3 s assigned where too short to be resolved
[5] = 300 μM, Rev = A5/A1 after washout
[6] = calculated from Inh at single concentration 300 μM
[7] = HEK293, 300 µM, read-out: Inh (inhibited fraction) at holding potential −150 mV
[8] = arithmetic mean, 300 µM, read-out: Ki-Kapp arith
[9] = arithmetic mean, 300 µM, read-out: Ki-ΔV1/2 arith
[10] = arithmetic mean, 300 µM, read-out: Kr arith
[11] = geometric mean, from Inh at −150 mV, 300 µM, read-out: Kr (resting state affinity)
[12] = geometric mean, from apparent affinity, 300 µM, read-out: Ki−Kapp (inactivated state affinity)
[13] = geometric mean, from shift of availability curve, 300 µM, read-out: Ki−ΔV1/2 (inactivated state affinity)
[14] = 30 μM, 500 s assigned where irreversible
[15] = 30 μM, Rev = A5/A1 after washout
[16] = calculated from Inh at single concentration 30 μM
[17] = 100 μM, 500 s assigned where irreversible
[18] = 100 μM, Rev = A5/A1 after washout
[19] = calculated from Inh at single concentration 100 μM
[20] = HEK293, 100 µM, read-out: Inh (inhibited fraction) at holding potential −150 mV
[21] = HEK293, 30 µM, read-out: Inh (inhibited fraction) at holding potential −150 mV

T1 sequence (P04775 whole entry): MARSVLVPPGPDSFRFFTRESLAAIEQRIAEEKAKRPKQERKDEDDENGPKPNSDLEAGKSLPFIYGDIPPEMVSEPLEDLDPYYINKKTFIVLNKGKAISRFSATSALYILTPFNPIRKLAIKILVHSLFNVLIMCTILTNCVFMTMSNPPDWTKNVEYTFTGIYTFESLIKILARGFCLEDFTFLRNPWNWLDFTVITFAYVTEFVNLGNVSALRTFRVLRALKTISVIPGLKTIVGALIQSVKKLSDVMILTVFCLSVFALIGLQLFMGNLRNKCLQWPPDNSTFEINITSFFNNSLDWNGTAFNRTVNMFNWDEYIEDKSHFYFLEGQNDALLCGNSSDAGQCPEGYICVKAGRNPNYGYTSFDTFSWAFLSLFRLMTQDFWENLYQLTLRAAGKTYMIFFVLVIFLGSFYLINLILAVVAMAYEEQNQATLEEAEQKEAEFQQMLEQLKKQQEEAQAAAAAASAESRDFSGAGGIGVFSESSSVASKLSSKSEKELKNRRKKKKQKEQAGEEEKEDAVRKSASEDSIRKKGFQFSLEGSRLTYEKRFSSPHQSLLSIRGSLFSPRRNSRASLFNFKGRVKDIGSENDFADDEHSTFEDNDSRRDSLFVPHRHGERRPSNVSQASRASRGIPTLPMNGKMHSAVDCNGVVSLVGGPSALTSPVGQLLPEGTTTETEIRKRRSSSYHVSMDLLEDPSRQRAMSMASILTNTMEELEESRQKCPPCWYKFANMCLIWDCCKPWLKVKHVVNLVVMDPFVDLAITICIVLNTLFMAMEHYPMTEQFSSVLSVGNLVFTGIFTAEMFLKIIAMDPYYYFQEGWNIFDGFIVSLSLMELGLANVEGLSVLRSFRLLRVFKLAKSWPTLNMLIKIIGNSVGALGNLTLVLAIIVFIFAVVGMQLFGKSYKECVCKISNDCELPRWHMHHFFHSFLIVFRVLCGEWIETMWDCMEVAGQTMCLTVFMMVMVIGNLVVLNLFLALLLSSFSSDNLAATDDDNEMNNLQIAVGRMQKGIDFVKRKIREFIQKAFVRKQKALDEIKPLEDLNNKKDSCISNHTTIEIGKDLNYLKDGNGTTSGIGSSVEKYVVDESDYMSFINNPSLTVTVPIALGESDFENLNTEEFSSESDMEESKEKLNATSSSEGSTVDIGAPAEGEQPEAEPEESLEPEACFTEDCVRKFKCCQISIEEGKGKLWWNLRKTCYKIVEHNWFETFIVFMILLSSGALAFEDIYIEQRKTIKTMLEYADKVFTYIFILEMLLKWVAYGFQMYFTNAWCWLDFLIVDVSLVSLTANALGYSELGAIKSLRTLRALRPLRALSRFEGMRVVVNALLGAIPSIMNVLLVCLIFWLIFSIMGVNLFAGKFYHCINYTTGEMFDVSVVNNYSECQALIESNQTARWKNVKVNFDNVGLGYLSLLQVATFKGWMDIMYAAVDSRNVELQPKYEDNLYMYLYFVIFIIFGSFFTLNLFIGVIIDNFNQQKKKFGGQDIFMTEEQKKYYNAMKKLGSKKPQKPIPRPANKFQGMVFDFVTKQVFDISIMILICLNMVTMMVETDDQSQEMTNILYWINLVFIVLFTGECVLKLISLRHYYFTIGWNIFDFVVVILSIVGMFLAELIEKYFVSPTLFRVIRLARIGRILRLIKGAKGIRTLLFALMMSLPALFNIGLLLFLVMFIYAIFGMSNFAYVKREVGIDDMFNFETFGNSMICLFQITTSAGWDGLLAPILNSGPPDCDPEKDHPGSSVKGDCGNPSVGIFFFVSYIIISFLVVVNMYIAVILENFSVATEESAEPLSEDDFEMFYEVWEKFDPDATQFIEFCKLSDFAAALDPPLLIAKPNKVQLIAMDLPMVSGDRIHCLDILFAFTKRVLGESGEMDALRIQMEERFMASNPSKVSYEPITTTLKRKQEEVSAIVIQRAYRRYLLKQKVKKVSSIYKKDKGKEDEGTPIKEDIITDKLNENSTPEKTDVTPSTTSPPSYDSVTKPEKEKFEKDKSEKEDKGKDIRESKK

O=C1NC(=O)C(c2ccccc2)(c2ccccc2)N1 [DPH, 5,5-diphenyl-hydantoin]
τoff ([1]; 300 μM): 15.96 s
τon [1, 4]: 5.20 s
UD (use-dependence of the inhibition) ([1]; 300 μM): 1.01
Rev (reversibility) [1, 5]: 0.75
inhibition at 300 µM ([1]; 300 μM): 18%
potency estimated from few doses [1, 6]: 1390 µM
potency [1]: among the least potent SCIs
ΔV1/2 (shift of availability curve) ([2]; 300 μM): −4.93 mV
inhibition at 300 µM [2, 7]: 12%
Ki [2, 8]: 78.1 µM
Ki [2, 9]: 172 µM
Kd [2, 10]: 2950 µM
Kd [2, 11]: 2540 µM
Ki [2, 12]: 70.8 µM
Ki [2, 13]: 150 µM
Ki (sodium channels): 16.2 µM
Kd (sodium channels): 701 µM
plasma conc. ([3]; as printed in each cell): 10 [44] µg/ml
plasma conc. ([3]; as printed in the µg/ml cell): 39.64 µM

Cc1ccc(-c2nc(C)c(CN3CCN(C(c4ccccc4)c4ccccc4)CC3)[nH]2)cc1 [LIF, Lifarizine]
onset and offset kinetics (time constants) [1]: very slow kinetics
τon ([1]; 30 μM): 96.5 s
UD (use-dependence of the inhibition) ([1]; 30 μM): 1.02
τoff [1, 14]: 500 s
Rev (reversibility) [1, 15]: 0.01
use-dependence (UD) [1]: no use-dependence
reversibility ([1]; 200 s of washout): apparent irreversibility
inhibition at 30 µM ([1]; 30 μM): 78%
potency estimated from few doses [1, 16]: 5.29 µM
potency [1]: high potency
ΔV1/2 (shift of availability curve) ([2]; 1 µM): −4.39 mV
inhibition at 1 µM ([2]; HEK293, 1 µM, read-out: Inh (inhibited fraction) at holding potential −150 mV): 2%
Ki ([2]; arithmetic mean, 1 µM, read-out: Ki-Kapp arith): 0.53 µM
Ki ([2]; arithmetic mean, 1 µM, read-out: Ki-ΔV1/2 arith): 0.96 µM
Kd ([2]; arithmetic mean, 1 µM, read-out: Kr arith): 63.2 µM
Kd ([2]; geometric mean, from Inh at −150 mV, 1 µM, read-out: Kr (resting state affinity)): 55.8 µM
Ki ([2]; geometric mean, from apparent affinity, 1 µM, read-out: Ki−Kapp (inactivated state affinity)): 0.5 µM
Ki ([2]; geometric mean, from shift of availability curve, 1 µM, read-out: Ki−ΔV1/2 (inactivated state affinity)): 0.91 µM and 0.92 µM
Ki (sodium channels): 0.19 µM
Kd (sodium channels): 10.2 µM
plasma conc. ([3]; as printed in each cell): 0.02 [59] µg/ml
plasma conc. ([3]; as printed in the µg/ml cell): 0.046 µM

CC12CC3CC(C)(C1)CC(N)(C3)C2 [MEM, Memantine]
τon ([1]; 100 μM): 3.51 s
UD (use-dependence of the inhibition) ([1]; 100 μM): 0.99
τoff [1, 17]: 8.98 s
Rev (reversibility) [1, 18]: 0.93
inhibition at 100 µM ([1]; 100 μM): 32%
potency estimated from few doses [1, 19]: 230 µM
ΔV1/2 (shift of availability curve) ([2]; 100 μM): −1.77 mV
inhibition at 100 µM [2, 20]: 29%
Ki ([2]; arithmetic mean, 100 µM, read-out: Ki-Kapp arith): 32.6 µM
Ki ([2]; arithmetic mean, 100 µM, read-out: Ki-ΔV1/2 arith): 119 µM
Kd ([2]; arithmetic mean, 100 µM, read-out: Kr arith): 248 µM
Kd ([2]; geometric mean, from Inh at −150 mV, 100 µM, read-out: Kr (resting state affinity)): 242 µM
Ki ([2]; geometric mean, from apparent affinity, 100 µM, read-out: Ki−Kapp (inactivated state affinity)): 28.5 µM
Ki ([2]; geometric mean, from shift of availability curve, 100 µM, read-out: Ki−ΔV1/2 (inactivated state affinity)): 110 µM
Ki (sodium channels): 6.67 µM
Kd (sodium channels): 178 µM
plasma conc. ([3]; as printed in each cell): 0.02 [53] µg/ml
plasma conc. ([3]; as printed in the µg/ml cell): 0.075 µM

Cc1cccc(C)c1OCC(C)N (stereo not drawn) [MEX, Mexiletine]
τoff ([1]; 300 μM): 12.93 s
τon [1, 4]: 8.6 s
UD (use-dependence of the inhibition) ([1]; 300 μM): 1.39
Rev (reversibility) [1, 5]: 0.78
inhibition at 300 µM ([1]; 300 μM): 57%
potency estimated from few doses [1, 6]: 231 µM
ΔV1/2 (shift of availability curve) ([2]; 300 μM): −10.3 mV
inhibition at 300 µM [2, 7]: 32%
Ki ([2]; Ki-ΔV1/2 arith, arithmetic mean, 300 µM): 37.3 µM
Ki ([2]; Ki−ΔV1/2 (inactivated state affinity), geometric mean, from shift of availability curve, 300 µM): 26.8 µM
Ki [2, 8]: 19.2 µM
Kd [2, 10]: 662 µM
Kd [2, 11]: 638 µM
Ki [2, 12]: 17.9 µM
Ki (sodium channels): 12.4 µM
Kd (sodium channels): 395 µM
plasma conc. ([3]; as printed in each cell): 2 [44] µg/ml
plasma conc. ([3]; as printed in the µg/ml cell): 9.271 µM

Fc1ccc([C@@H]2CCNC[C@H]2COc2ccc3c(c2)OCO3)cc1 [PRX, Paroxetine]
τon ([1]; 30 μM): 32.07 s
UD (use-dependence of the inhibition) ([1]; 30 μM): 1.46
τoff [1, 14]: 35.99 s
Rev (reversibility) [1, 15]: 0.34
inhibition at 30 µM ([1]; 30 μM): 65%
potency estimated from few doses [1, 16]: 16.2 µM
ΔV1/2 (shift of availability curve) ([2]; 30 μM): −11.4 mV
inhibition at 30 µM [2, 21]: 55%
Ki ([2]; arithmetic mean, 30 µM, read-out: Ki-Kapp arith): 1.63 µM
Ki ([2]; arithmetic mean, 30 µM, read-out: Ki-ΔV1/2 arith): 8.99 µM
Kd ([2]; arithmetic mean, 30 µM, read-out: Kr arith): 32.1 µM
Kd ([2]; geometric mean, from Inh at −150 mV, 30 µM, read-out: Kr (resting state affinity)): 24.2 µM
Ki ([2]; geometric mean, from apparent affinity, 30 µM, read-out: Ki−Kapp (inactivated state affinity)): 0.73 µM
Ki ([2]; geometric mean, from shift of availability curve, 30 µM, read-out: Ki−ΔV1/2 (inactivated state affinity)): 1.99 µM
Ki (sodium channels): 1.45 µM
Kd (sodium channels): 17 µM
plasma conc. ([3]; as printed in each cell): 0.38 [44] µg/ml

COc1ccccc1OCC(O)CN1CCN(CC(=O)Nc2c(C)cccc2C)CC1 (stereo not drawn) [RAN, Ranolazine]
τon ([1]; 100 μM): 8.13 s
UD (use-dependence of the inhibition) ([1]; 100 μM): 1.21
τoff [1, 17]: 13.24 s
Rev (reversibility) [1, 18]: 0.89
inhibition at 100 µM ([1]; 100 μM): 16%
potency estimated from few doses [1, 19]: 355 µM
(IC50/Ki) / (Kr/Ki) ratio ([1]; from IC50 (5 Hz train) and Kr, Ki (steady-state inactivation)): 0.94
ΔV1/2 (shift of availability curve) ([2]; 300 μM): −5.52 mV
inhibition at 300 µM [2, 7]: 42%
Ki [2, 8]: 19.7 µM
Ki [2, 9]: 77.9 µM
Kd [2, 10]: 587 µM
Kd [2, 11]: 435 µM
Ki [2, 12]: 10.7 µM
Ki [2, 13]: 66.8 µM
Ki (sodium channels): 75 µM
Kd (sodium channels): 1000 µM
plasma conc. ([3]; as printed in each cell): 3.59 [52] µg/ml
plasma conc. ([3]; as printed in the µg/ml cell): 7.173 µM

Nc1nc2ccc(OC(F)(F)F)cc2s1 [RIL, Riluzole]
Rev (reversibility) [1]: 0.52
τon ([1]; 30 μM): 3.9 s
UD (use-dependence of the inhibition) ([1]; 30 μM): 0.95
τoff [1, 14]: 17.6 s
use-dependence (UD) [1]: no use-dependence
inhibition at 30 µM ([1]; 30 μM): 27%
potency estimated from few doses [1, 16]: 81 µM
inhibition at 30 µM [2, 21]: 8%
inhibition at 100 µM [2, 20]: 22%
Ki (sodium channels): 0.49 µM
Kd (sodium channels): 62.4 µM
plasma conc. ([3]; as printed in each cell): 0.17 [44] µg/ml
plasma conc. ([3]; as printed in the µg/ml cell): 0.739 µM
